Data as given in US20170000133A1, “BENZOXABOROLE FUNGICIDES” (SYNGENTA PARTICIPATIONS AG, priority 2013, published 2017).

Test system: Phytophthora infestans
Test: whole plant or invertebrate
Format: in vivo
Conditions: in Solanum lycopersicum, foliar, read-out: disease control

Structure (SMILES) | pest or weed control at 200 ppm
O=C(OCC1CC1)c1cc2c(cc1Cl)COB2O [Compound 202] | ≥ 80%
C#CCCCOC(=O)c1cc2c(cc1Cl)COB2O [Compound 208] | ≥ 80%

Test system: Plasmopara viticola
Test: whole plant or invertebrate
Format: in vivo
Conditions: foliar, read-out: disease control

Structure (SMILES) | pest or weed control at 200 ppm
O=C(Nc1ccccc1C(=O)c1ccccc1)c1cc2c(cc1F)COB2O [Compound 161] | ≥ 80%
C#CCCCOC(=O)c1cc2c(cc1Cl)COB2O [Compound 208] | ≥ 80%
CCC#CCOC(=O)c1ccc2c(c1)B(O)OC2 [Compound 318] | ≥ 80%
O=C(OCC1CCC1)c1ccc2c(c1)B(O)OC2 [Compound 351] | ≥ 80%

Test system: Puccinia recondita f. sp. tritici
Test: Puccinia recondita f. sp. tritici / wheat / leaf disc preventative (brown rust)
Format: in vivo
Conditions: foliar, wheat leaf segments cv Kanzler, inoculated 1 day after application, assessed 7-9 days after application, read-out: disease control
Excerpt: 3. Puccinia recondita f. sp. tritici/Wheat/Leaf Disc Preventative (Brown Rust): Wheat leaf segments cultivated variety (cv) Kanzler were placed on agar in 24-well plates and sprayed with formulated test compound diluted in water at an application rate of 200 ppm. The leaf disks were inoculated with a spore suspension of the fungus 1 day after application.

Structure (SMILES) | pest or weed control at 200 ppm
O=C(Nc1ccccc1C(=O)c1ccccc1)c1cc2c(cc1F)COB2O [Compound 161] | ≥ 80%

Test system: Puccinia recondita f. sp. tritici
Test: Puccinia recondita f. sp. tritici / wheat / leaf disc curative (brown rust)
Format: in vivo
Conditions: foliar, 192 h, wheat leaf segments, applied one day after inoculation, assessed 8 dpi, read-out: disease control
Protocol: 4. Puccinia recondita f. sp. tritici/Wheat/Leaf Disc Curative (Brown Rust) Wheat leaf segments are placed on agar in multiwell plates (24-well format). The leaf disks are then inoculated with a spore suspension of the fungus. One day after inoculation the test solution is applied. After appropriate incubation the activity of a compound is assessed 8 dpi (days after inoculation) as curative fungicidal activity. Dose range: 200-22 ppm.

Structure (SMILES) | pest or weed control at 200 ppm
O=C(OCCF)c1cc2c(cc1Cl)COB2O [Compound 233] | ≥ 80%
O=C(OCC1CCC1)c1ccc2c(c1)B(O)OC2 [Compound 351] | ≥ 80%

Test system: Phaeosphaeria nodorum (Septoria nodorum)
Test: Phaeosphaeria nodorum (Septoria nodorum) / wheat / leaf disc preventative (glume blotch)
Format: in vivo
Conditions: Parastagonospora nodorum, foliar, wheat leaf segments cv Kanzler, inoculated 2 days after application, assessed 5-7 days after application, read-out: disease control
Protocol: 5. Phaeosphaeria nodorum (Septoria nodorum)/Wheat/Leaf Disc Preventative (Glume Blotch): Wheat leaf segments (cv) Kanzler were placed on agar in a 24-well plate and sprayed with formulated test compound diluted in water at an application rate of 200 ppm. The leaf disks were inoculated with a spore suspension of the fungus 2 days after application. The inoculated test leaf disks were incubated at 20° C. and 75% relative humidity under a light regime of 12/12 h (light/dark) in a climate cabinet and the activity of a compound was assessed as percent disease control compared to untreated when an appropriate level of disease damage appears in untreated check leaf disks (5-7 days after application).

Structure (SMILES) | pest or weed control at 200 ppm
O=C(Nc1ccccc1C(=O)c1ccccc1)c1cc2c(cc1F)COB2O [Compound 161] | ≥ 80%
O=C(OCC1CC1)c1cc2c(cc1Cl)COB2O [Compound 202] | ≥ 80%
C#CCCCOC(=O)c1cc2c(cc1Cl)COB2O [Compound 208] | ≥ 80%
O=C(OCCF)c1cc2c(cc1Cl)COB2O [Compound 233] | ≥ 80%
CCC#CCOC(=O)c1ccc2c(c1)B(O)OC2 [Compound 318] | ≥ 80%
O=C(OCC1CCC1)c1ccc2c(c1)B(O)OC2 [Compound 351] | ≥ 80%
COC(=O)c1cc2c(cc1C)COB2O [Compound 446] | ≥ 80%

Test system: Magnaporthe grisea (Pyricularia oryzae)
Test: not given
Format: in vivo
Conditions: 200 ppm; rice leaf segments cv. Ballila, inoculated 2 days after application, assessed 5-7 days after application

Structure (SMILES) | disease control
COC(=O)c1cc2c(cc1Cl)COB2O [Compound 21] | at least 80%

Test system: Pythium ultimum
Test: Pythium ultimum / liquid culture (seedling damping off)
Format: cell-based
Conditions: Globisporangium ultimum; 200 ppm; potato dextrose broth, 24° C., 2-3 days after application; read-out: disease control (inhibition of growth determined photometrically)

Structure (SMILES) | inhibition at 200 ppm
O=C(Nc1ccccc1C(=O)c1ccccc1)c1cc2c(cc1F)COB2O [Compound 161] | ≥ 80%
O=C(OCC1CC1)c1cc2c(cc1Cl)COB2O [Compound 202] | ≥ 80%
C#CCCCOC(=O)c1cc2c(cc1Cl)COB2O [Compound 208] | ≥ 80%
O=C(OCCF)c1cc2c(cc1Cl)COB2O [Compound 233] | ≥ 80%
CCC#CCOC(=O)c1ccc2c(c1)B(O)OC2 [Compound 318] | ≥ 80%
O=C(OCC1CCC1)c1ccc2c(c1)B(O)OC2 [Compound 351] | ≥ 80%
COC(=O)c1cc2c(cc1C)COB2O [Compound 446] | ≥ 80%

Test system: Botryotinia fuckeliana (Botrytis cinerea)
Test: Botryotinia fuckeliana (Botrytis cinerea) / liquid culture (gray mould)
Format: cell-based
Conditions: Vogels broth, 24° C., 3-4 days after application, read-out: disease control (inhibition of growth determined photometrically)
Protocol: 10. Botryotinia fuckeliana (Botrytis cinerea)/Liquid Culture (Gray Mould): Conidia of the fungus from cryogenic storage were directly mixed into nutrient broth (Vogels broth). After placing a DMSO solution of test compound into a 96-well microtiter plate at an application rate of 200 ppm, the nutrient broth containing the fungal spores was added. The test plates were incubated at 24° C. and the inhibition of growth was determined photometrically 3-4 days after application.

Structure (SMILES) | inhibition at 200 ppm
O=C(OCC1CC1)c1cc2c(cc1Cl)COB2O [Compound 202] | ≥ 80%
CCC#CCOC(=O)c1ccc2c(c1)B(O)OC2 [Compound 318] | ≥ 80%

Test system: Glomerella lagenarium (Colletotrichum lagenarium)
Test: Glomerella lagenarium (Colletotrichum lagenarium) / liquid culture (anthracnose)
Format: cell-based
Conditions: Colletotrichum orbiculare, PDB potato dextrose broth, 24° C., 3-4 days after application, read-out: disease control (inhibition of growth measured photometrically)
How it was run: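 Compound was applied at 200 ppm from DMSO solution, then potato dextrose broth carrying cryostored fungal spores was added. Growth inhibition was measured by photometry after 3-4 days of incubation at 24° C.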

Structure (SMILES) | inhibition at 200 ppm
O=C(OCC1CC1)c1cc2c(cc1Cl)COB2O [Compound 202] | ≥ 80%
C#CCCCOC(=O)c1cc2c(cc1Cl)COB2O [Compound 208] | ≥ 80%
O=C(OCCF)c1cc2c(cc1Cl)COB2O [Compound 233] | ≥ 80%
O=C(OCC1CCC1)c1ccc2c(c1)B(O)OC2 [Compound 351] | ≥ 80%
COC(=O)c1cc2c(cc1C)COB2O [Compound 446] | ≥ 80%

Test system: Mycosphaerella arachidis (Cercospora arachidicola)
Test: Mycosphaerella arachidis (Cercospora arachidicola) / liquid culture (early leaf spot)
Format: cell-based
Conditions: PDB potato dextrose broth, 24° C., 4-5 days after application, read-out: disease control (inhibition of growth determined photometrically)
How it was run: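 Test compound, applied at 200 ppm from DMSO solution, was combined with spore-containing potato dextrose broth. Photometric growth inhibition was scored after 4-5 days at 24° C.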

Structure (SMILES) | inhibition at 200 ppm
O=C(OCC1CC1)c1cc2c(cc1Cl)COB2O [Compound 202] | ≥ 80%
O=C(OCCF)c1cc2c(cc1Cl)COB2O [Compound 233] | ≥ 80%
CCC#CCOC(=O)c1ccc2c(c1)B(O)OC2 [Compound 318] | ≥ 80%
O=C(OCC1CCC1)c1ccc2c(c1)B(O)OC2 [Compound 351] | ≥ 80%
COC(=O)c1cc2c(cc1C)COB2O [Compound 446] | ≥ 80%

Test system: Mycosphaerella graminicola (Septoria tritici)
Test: Mycosphaerella graminicola (Septoria tritici) / liquid culture (Septoria blotch)
Format: cell-based
Conditions: Zymoseptoria tritici, PDB potato dextrose broth, 24° C., 4-5 days after application, read-out: disease control (inhibition of growth determined photometrically)
How it was run: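 Growth inhibition was read photometrically 4-5 days after application, following incubation at 24° C of fungal conidia in potato dextrose broth over test compound (200 ppm, from DMSO solution) in microtiter plates.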

Structure (SMILES) | inhibition at 200 ppm
O=C(Nc1ccccc1C(=O)c1ccccc1)c1cc2c(cc1F)COB2O [Compound 161] | ≥ 80%
O=C(OCC1CC1)c1cc2c(cc1Cl)COB2O [Compound 202] | ≥ 80%
C#CCCCOC(=O)c1cc2c(cc1Cl)COB2O [Compound 208] | ≥ 80%
O=C(OCCF)c1cc2c(cc1Cl)COB2O [Compound 233] | ≥ 80%
CCC#CCOC(=O)c1ccc2c(c1)B(O)OC2 [Compound 318] | ≥ 80%
O=C(OCC1CCC1)c1ccc2c(c1)B(O)OC2 [Compound 351] | ≥ 80%
COC(=O)c1cc2c(cc1C)COB2O [Compound 446] | ≥ 80%

Test system: Gaeumannomyces graminis
Test: Gaeumannomyces graminis / liquid culture (take-all of cereals)
Format: cell-based
Conditions: PDB potato dextrose broth, 24° C., 4-5 days after application, read-out: disease control (inhibition of growth determined photometrically)
How it was run: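 Growth inhibition measured photometrically 4–5 days post-application, following incubation at 24 °C. Test compound, applied from DMSO at 200 ppm, mixed with fungal mycelial fragments in potato dextrose broth.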

Structure (SMILES) | inhibition at 200 ppm
O=C(OCC1CC1)c1cc2c(cc1Cl)COB2O [Compound 202] | ≥ 80%
C#CCCCOC(=O)c1cc2c(cc1Cl)COB2O [Compound 208] | ≥ 80%
O=C(OCCF)c1cc2c(cc1Cl)COB2O [Compound 233] | ≥ 80%
CCC#CCOC(=O)c1ccc2c(c1)B(O)OC2 [Compound 318] | ≥ 80%
O=C(OCC1CCC1)c1ccc2c(c1)B(O)OC2 [Compound 351] | ≥ 80%
COC(=O)c1cc2c(cc1C)COB2O [Compound 446] | ≥ 80%

Test system: Monographella nivalis (Microdochium nivale)
Test: Monographella nivalis (Microdochium nivale) / liquid culture (foot rot cereals)
Format: cell-based
Conditions: PDB potato dextrose broth, 24° C., 4-5 days after application, read-out: disease control (inhibition of growth determined photometrically)

Structure (SMILES) | inhibition at 200 ppm
O=C(Nc1ccccc1C(=O)c1ccccc1)c1cc2c(cc1F)COB2O [Compound 161] | ≥ 80%
O=C(OCC1CC1)c1cc2c(cc1Cl)COB2O [Compound 202] | ≥ 80%
C#CCCCOC(=O)c1cc2c(cc1Cl)COB2O [Compound 208] | ≥ 80%
O=C(OCCF)c1cc2c(cc1Cl)COB2O [Compound 233] | ≥ 80%
CCC#CCOC(=O)c1ccc2c(c1)B(O)OC2 [Compound 318] | ≥ 80%
O=C(OCC1CCC1)c1ccc2c(c1)B(O)OC2 [Compound 351] | ≥ 80%
COC(=O)c1cc2c(cc1C)COB2O [Compound 446] | ≥ 80%

Test system: Fusarium culmorum
Test: microbe, parasite or virus in culture
Format: cell-based
Conditions: read-out: disease control (inhibition of growth determined visually)

Structure (SMILES) | inhibition at 200 ppm
O=C(OCC1CC1)c1cc2c(cc1Cl)COB2O [Compound 202] | ≥ 80%
O=C(OCCF)c1cc2c(cc1Cl)COB2O [Compound 233] | ≥ 80%
CCC#CCOC(=O)c1ccc2c(c1)B(O)OC2 [Compound 318] | ≥ 80%
O=C(OCC1CCC1)c1ccc2c(c1)B(O)OC2 [Compound 351] | ≥ 80%
COC(=O)c1cc2c(cc1C)COB2O [Compound 446] | ≥ 80%

Test system: Thanatephorus cucumeris (Rhizoctonia solani)
Test: Thanatephorus cucumeris (Rhizoctonia solani) / liquid culture (foot rot, damping-off)
Format: cell-based
Conditions: PDB potato dextrose broth, 24° C., 3-4 days after application, read-out: disease control (inhibition of growth determined photometrically)
How it was run: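 Photometric growth-inhibition readout taken 3-4 days after application, with cultures incubated at 24 °C. Test compound was applied at 200 ppm from DMSO solution to R. solani mycelial fragments in PDB.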

Structure (SMILES) | inhibition at 200 ppm
O=C(OCC1CC1)c1cc2c(cc1Cl)COB2O [Compound 202] | ≥ 80%
CCC#CCOC(=O)c1ccc2c(c1)B(O)OC2 [Compound 318] | ≥ 80%
O=C(OCC1CCC1)c1ccc2c(c1)B(O)OC2 [Compound 351] | ≥ 80%
COC(=O)c1cc2c(cc1C)COB2O [Compound 446] | ≥ 80%

Test system: Sclerotinia sclerotiorum
Test: Sclerotinia sclerotiorum / liquid culture (cottony rot)
Format: cell-based
Conditions: PDB potato dextrose broth, 24° C., 3-4 days after application, read-out: disease control (inhibition of growth determined visually)
Protocol: 18. Sclerotinia sclerotiorum/Liquid Culture (Cottony Rot): Mycelia fragments of a newly grown liquid culture of the fungus were directly mixed into nutrient broth (PDB potato dextrose broth). After placing a (DMSO) solution of the test compounds into a microtiter plate (96-well format) the nutrient broth containing the fungal material was added. The test plates were incubated at 24° C. and the inhibition of growth was determined visually 3-4 days after application.

Structure (SMILES) | inhibition at 200 ppm
O=C(OCC1CC1)c1cc2c(cc1Cl)COB2O [Compound 202] | ≥ 80%
COC(=O)c1cc2c(cc1C)COB2O [Compound 446] | ≥ 80%

Test system: not given
Test: not given
Conditions: not given

Structure (SMILES) | melting point
COC(=O)c1cc2c(cc1C)COB2O [Compound 446] | 136 to 138 °C
